Measurements as given in ChEMBL document CHEMBL1671662, “In vitro activities of telavancin and six comparator agents against anaerobic bacterial isolates” (2009).

Columns and labels:
Format in all cases: functional
Anaerococcus prevotii = experiment: Antibacterial activity against Anaerococcus prevotii by CLSI M11-A6 agar dilution method
Actinomyces naeslundii = experiment: Antibacterial activity against Actinomyces naeslundii by CLSI M11-A6 agar dilution method
Ruminococcus lactaris = experiment: Antibacterial activity against Ruminococcus lactaris by CLSI M11-A6 agar dilution method
Ruminococcus albus = experiment: Antibacterial activity against Ruminococcus albus by CLSI M11-A6 agar dilution method; settings: Hominimerdicola alba
[1] = tested on: Paraclostridium bifermentans; experiment: Antibacterial activity against Clostridium bifermentans by CLSI M11-A6 agar dilution method
Clostridium bolteae = experiment: Antibacterial activity against Clostridium bolteae by CLSI M11-A6 agar dilution method; settings: Enterocloster bolteae
Phocaeicola vulgatus = experiment: Antibacterial activity against Bacteroides vulgatus by CLSI M11-A6 agar dilution method
Clostridium glycolicum = experiment: Antibacterial activity against Clostridium glycolicum by CLSI M11-A6 agar dilution method; settings: Terrisporobacter glycolicus
Holdemania filiformis = experiment: Antibacterial activity against Holdemania filiformis by CLSI M11-A6 agar dilution method
Clostridium beijerinckii = experiment: Antibacterial activity against Clostridium beijerinckii by CLSI M11-A6 agar dilution method
Prevotella oris = experiment: Antibacterial activity against Prevotella oris by CLSI M11-A6 agar dilution method; settings: Segatella oris
Bifidobacterium bifidum = experiment: Antibacterial activity against Bifidobacterium bifidum by CLSI M11-A6 agar dilution method
[2] = tested on: Clostridium paraputrificum; experiment: Antibacterial activity against Clostridium paraputrificum by CLSI M11-A6 agar dilution method
Ruminococcus sp. = experiment: Antibacterial activity against Ruminococcus sp. by CLSI M11-A6 agar dilution method
Prevotella bivia = experiment: Antibacterial activity against Prevotella bivia by CLSI M11-A6 agar dilution method
Prevotella disiens = experiment: Antibacterial activity against Prevotella P disiens by CLSI M11-A6 agar dilution method
Hoylesella loescheii = experiment: Antibacterial activity against Prevotella loescheii by CLSI M11-A6 agar dilution method
[Clostridium] innocuum = Antibacterial activity against Clostridium innocuum by CLSI M11-A6 agar dilution method
Prevotella nigrescens = experiment: Antibacterial activity against Prevotella nigrescens by CLSI M11-A6 agar dilution method
Prevotella intermedia = experiment: Antibacterial activity against Prevotella P intermedia by CLSI M11-A6 agar dilution method
Blautia luti = experiment: Antibacterial activity against Ruminococcus luti by CLSI M11-A6 agar dilution method
[3] = tested on: Clostridium sporosphaeroides; experiment: Antibacterial activity against Clostridium sporosphaeroides by CLSI M11-A6 agar dilution method; settings: Faecalispora sporosphaeroides
[4] = tested on: Parabacteroides distasonis; experiment: Antibacterial activity against Parabacteroides distasonis by CLSI M11-A6 agar dilution method
Prevotella corporis = experiment: Antibacterial activity against Prevotella corporis by CLSI M11-A6 agar dilution method
[5] = tested on: Bacteroides thetaiotaomicron; experiment: Antibacterial activity against Bacteroides thetaiotaomicron by CLSI M11-A6 agar dilution method
[6] = tested on: Paeniclostridium sordellii; experiment: Antibacterial activity against Clostridium sordellii by CLSI M11-A6 agar dilution method; settings: Paraclostridium sordellii
Ruminococcus torques = experiment: Antibacterial activity against Ruminococcus torques by CLSI M11-A6 agar dilution method; settings: Mediterraneibacter torques
Streptococcus anginosus = experiment: Antibacterial activity against Streptococcus anginosus by CLSI M11-A6 agar dilution method
[7] = tested on: Bifidobacterium pseudolongum; experiment: Antibacterial activity against Bifidobacterium pseudolongum by CLSI M11-A6 agar dilution method
Thomasclavelia ramosa = experiment: Antibacterial activity against Clostridium ramosum by CLSI M11-A6 agar dilution method
Clostridium = experiment: Antibacterial activity against Clostridium hypermegas by CLSI M11-A6 agar dilution method
Bifidobacterium dentium = experiment: Antibacterial activity against Bifidobacterium dentium by CLSI M11-A6 agar dilution method
Clostridium disporicum = experiment: Antibacterial activity against Clostridium disporicum by CLSI M11-A6 agar dilution method
Fusobacterium mortiferum = experiment: Antibacterial activity against Fusobacterium mortiferum by CLSI M11-A6 agar dilution method
Parvimonas micra = experiment: Antibacterial activity against Peptostreptococcus micros by CLSI M11-A6 agar dilution method
Ruminococcus gnavus = experiment: Antibacterial activity against Ruminococcus gnavus by CLSI M11-A6 agar dilution method; settings: Mediterraneibacter gnavus
Clostridium bartlettii = experiment: Antibacterial activity against Clostridium bartlettii by CLSI M11-A6 agar dilution method; settings: Intestinibacter bartlettii
Clostridium subterminale = experiment: Antibacterial activity against Clostridium subterminale by CLSI M11-A6 agar dilution method
[8] = tested on: Enterocloster clostridioformis; experiment: Antibacterial activity against Clostridium clostridioforme by CLSI M11-A6 agar dilution method

CN[C@H](CC(C)C)C(=O)N[C@H]1C(=O)N[C@@H](CC(N)=O)C(=O)N[C@H]2C(=O)N[C@H]3C(=O)N[C@H](C(=O)N[C@H](C(=O)O)c4cc(O)cc(O)c4-c4cc3ccc4O)[C@H](O)c3ccc(c(Cl)c3)Oc3cc2cc(c3O[C@@H]2O[C@H](CO)[C@@H](O)[C@H](O)[C@H]2O[C@H]2C[C@](C)(N)[C@H](O)[C@H](C)O2)Oc2ccc(cc2Cl)[C@H]1O [VANCOMYCIN]
16 µg/mL: MIC ([Clostridium] innocuum) | MIC50 ([Clostridium] innocuum) | MIC90 ([Clostridium] innocuum)
0.5 µg/mL: MIC50 (Anaerococcus prevotii) | MIC50 (Actinomyces naeslundii) | MIC50 (Ruminococcus lactaris) | MIC50 (Ruminococcus albus) | MIC50 (Holdemania filiformis) | MIC50 (Bifidobacterium bifidum) | MIC50 (Ruminococcus sp.) | MIC50 (Blautia luti) | MIC50 (Ruminococcus torques) | MIC50 [7] | MIC50 (Bifidobacterium dentium) | MIC50 (Parvimonas micra) | MIC50 (Ruminococcus gnavus) | MIC (Clostridium subterminale) | MIC50 (Clostridium subterminale)
128 µg/mL: MIC90 (Phocaeicola vulgatus) | MIC50 [4] | MIC90 [4]
2 µg/mL: MIC50 (Clostridium bolteae) | MIC90 (Clostridium bolteae) | MIC50 (Streptococcus anginosus) | MIC90 (Streptococcus anginosus) | MIC50 [8] | MIC90 [8]
4 µg/mL: MIC90 (Actinomyces naeslundii) | MIC90 [1] | MIC90 (Clostridium glycolicum) | MIC90 (Holdemania filiformis) | MIC90 (Clostridium beijerinckii) | MIC90 (Bifidobacterium bifidum) | MIC90 [2] | MIC90 [3] | MIC90 [6] | MIC90 [7] | MIC90 (Clostridium) | MIC90 (Bifidobacterium dentium) | MIC90 (Clostridium disporicum) | MIC90 (Clostridium bartlettii)
32 µg/mL: MIC50 (Prevotella oris) | MIC50 (Prevotella bivia) | MIC50 (Prevotella disiens) | MIC50 (Hoylesella loescheii) | MIC50 (Prevotella nigrescens) | MIC50 (Prevotella intermedia) | MIC50 (Prevotella corporis)
8 µg/mL: MIC50 (Thomasclavelia ramosa) | MIC90 (Thomasclavelia ramosa)
64 µg/mL: MIC50 (Phocaeicola vulgatus)
> 128 µg/mL: MIC90 (Prevotella oris) | MIC90 (Prevotella bivia) | MIC90 (Prevotella disiens) | MIC90 (Hoylesella loescheii) | MIC90 (Prevotella nigrescens) | MIC90 (Prevotella intermedia) | MIC90 (Prevotella corporis) | MIC50 [5] | MIC90 [5] | MIC (Fusobacterium mortiferum) | MIC50 (Fusobacterium mortiferum) | MIC90 (Fusobacterium mortiferum)
1 µg/mL: MIC90 (Anaerococcus prevotii) | MIC90 (Ruminococcus lactaris) | MIC90 (Ruminococcus albus) | MIC50 [1] | MIC50 (Clostridium glycolicum) | MIC50 (Clostridium beijerinckii) | MIC50 [2] | MIC90 (Ruminococcus sp.) | MIC90 (Blautia luti) | MIC50 [3] | MIC50 [6] | MIC90 (Ruminococcus torques) | MIC50 (Clostridium) | MIC50 (Clostridium disporicum) | MIC90 (Parvimonas micra) | MIC90 (Ruminococcus gnavus) | MIC50 (Clostridium bartlettii) | MIC90 (Clostridium subterminale)

Cc1ncc([N+](=O)[O-])n1CCO [METRONIDAZOLE]
≤ 0.12 µg/mL: MIC50 (Ruminococcus lactaris) | MIC50 (Ruminococcus albus) | MIC50 (Clostridium bolteae) | MIC50 (Blautia luti) | MIC50 (Ruminococcus torques) | MIC50 (Fusobacterium mortiferum) | MIC50 (Clostridium subterminale) | MIC [8] | MIC50 [8] | MIC90 [8]
1 µg/mL: MIC50 (Actinomyces naeslundii) | MIC90 [1] | MIC90 (Phocaeicola vulgatus) | MIC90 (Clostridium glycolicum) | MIC50 (Holdemania filiformis) | MIC90 (Clostridium beijerinckii) | MIC90 (Prevotella oris) | MIC50 (Bifidobacterium bifidum) | MIC90 [2] | MIC90 (Prevotella bivia) | MIC90 (Prevotella disiens) | MIC90 (Hoylesella loescheii) | MIC90 (Prevotella nigrescens) | MIC90 (Prevotella intermedia) | MIC90 [3] | MIC50 [4] | MIC90 (Prevotella corporis) | MIC50 [5] | MIC90 [5] | MIC90 [6] | MIC50 [7] | MIC90 (Thomasclavelia ramosa) | MIC90 (Clostridium) | MIC50 (Bifidobacterium dentium) | MIC90 (Clostridium disporicum) | MIC90 (Clostridium bartlettii)
> 128 µg/mL: MIC90 (Streptococcus anginosus)
0.25 µg/mL: MIC90 (Ruminococcus lactaris) | MIC90 (Ruminococcus albus) | MIC50 [1] | MIC90 (Clostridium bolteae) | MIC50 (Clostridium glycolicum) | MIC50 (Clostridium beijerinckii) | MIC50 [2] | MIC90 (Blautia luti) | MIC50 [3] | MIC50 [6] | MIC90 (Ruminococcus torques) | MIC50 (Clostridium) | MIC50 (Clostridium disporicum) | MIC90 (Fusobacterium mortiferum) | MIC50 (Ruminococcus gnavus) | MIC90 (Ruminococcus gnavus) | MIC50 (Clostridium bartlettii) | MIC90 (Clostridium subterminale)
2 µg/mL: MIC90 (Anaerococcus prevotii) | MIC90 (Ruminococcus sp.) | MIC90 [4] | MIC90 (Parvimonas micra)
4 µg/mL: MIC90 ([Clostridium] innocuum)
0.5 µg/mL: MIC50 (Anaerococcus prevotii) | MIC50 (Phocaeicola vulgatus) | MIC50 (Prevotella oris) | MIC50 (Ruminococcus sp.) | MIC50 (Prevotella bivia) | MIC50 (Prevotella disiens) | MIC50 (Hoylesella loescheii) | MIC50 ([Clostridium] innocuum) | MIC50 (Prevotella nigrescens) | MIC50 (Prevotella intermedia) | MIC50 (Prevotella corporis) | MIC50 (Thomasclavelia ramosa) | MIC50 (Parvimonas micra)
128 µg/mL: MIC90 (Actinomyces naeslundii) | MIC90 (Holdemania filiformis) | MIC90 (Bifidobacterium bifidum) | MIC50 (Streptococcus anginosus) | MIC90 [7] | MIC90 (Bifidobacterium dentium)
